Data on 26 compounds can be found in patent publication US12435051B2, “Dual modulator of mGluR5 and 5-HT2A receptor, and use thereof” (Vivozon Inc., priority 2020, dated 2025).

For one assay, the target named is T1, human 5-HT2AR (Homo sapiens, UniProt P28223).
T1 construct: expressed in transfected cells; host or cells: HEK293
As to the kind of experiment: HTRF-based IP1 accumulation assay (5-HT2AR antagonistic effect). The class given is cell-based. Conditions: HEK293 cells overexpressing human 5-HT2AR; serotonin at EC80. Here is the method:
The 5-HT2AR antagonistic effect of the test compounds was confirmed by measuring the production amount of IP1 using the HEK293 cell line permanently overexpressing the human 5-HT2AR. The test compounds were dissolved in 100% DMSO to a final concentration of 10 mM. The starting concentration of 10 μM was prepared from the stock solution, followed by serial dilutions to prepare working solutions in a buffer containing lithium chloride (LiCl). The cells and compounds prepared in the test buffer were placed in a 96-well plate and incubated at room temperature for 10 minutes. Serotonin of EC80 concentration was added, followed by incubation at 37° C. for 30 minutes in a light-shielding state. To measure IP1 accumulation in cells, JP1-d2 acceptor and IP1-Cryptate donor-which are HTRF-based substances for fluorescence signals-were added and incubated for 1 hour at room temperature in a light-shielded state. The fluorescent emission signals of acceptor and donor were detected, and HTRF ratio values were substracted by mean value of serotonin control. The percentage of activation was calculated by normalization of the serotonin control (0%) and IP1 control (100%). The IC50 values of the test compounds are represented in Table 1. (+: 1,000-2,000 nM, ++: 500-1,000 nM, +++: 100-500 nM, ++++: less than 100 nM).

In the next assay the target is T2, mGluR5 (Homo sapiens, UniProt P41594).
T2 construct: expressed in transfected cells; host or cells: HEK293
T2 sequence (P41594 21-1212): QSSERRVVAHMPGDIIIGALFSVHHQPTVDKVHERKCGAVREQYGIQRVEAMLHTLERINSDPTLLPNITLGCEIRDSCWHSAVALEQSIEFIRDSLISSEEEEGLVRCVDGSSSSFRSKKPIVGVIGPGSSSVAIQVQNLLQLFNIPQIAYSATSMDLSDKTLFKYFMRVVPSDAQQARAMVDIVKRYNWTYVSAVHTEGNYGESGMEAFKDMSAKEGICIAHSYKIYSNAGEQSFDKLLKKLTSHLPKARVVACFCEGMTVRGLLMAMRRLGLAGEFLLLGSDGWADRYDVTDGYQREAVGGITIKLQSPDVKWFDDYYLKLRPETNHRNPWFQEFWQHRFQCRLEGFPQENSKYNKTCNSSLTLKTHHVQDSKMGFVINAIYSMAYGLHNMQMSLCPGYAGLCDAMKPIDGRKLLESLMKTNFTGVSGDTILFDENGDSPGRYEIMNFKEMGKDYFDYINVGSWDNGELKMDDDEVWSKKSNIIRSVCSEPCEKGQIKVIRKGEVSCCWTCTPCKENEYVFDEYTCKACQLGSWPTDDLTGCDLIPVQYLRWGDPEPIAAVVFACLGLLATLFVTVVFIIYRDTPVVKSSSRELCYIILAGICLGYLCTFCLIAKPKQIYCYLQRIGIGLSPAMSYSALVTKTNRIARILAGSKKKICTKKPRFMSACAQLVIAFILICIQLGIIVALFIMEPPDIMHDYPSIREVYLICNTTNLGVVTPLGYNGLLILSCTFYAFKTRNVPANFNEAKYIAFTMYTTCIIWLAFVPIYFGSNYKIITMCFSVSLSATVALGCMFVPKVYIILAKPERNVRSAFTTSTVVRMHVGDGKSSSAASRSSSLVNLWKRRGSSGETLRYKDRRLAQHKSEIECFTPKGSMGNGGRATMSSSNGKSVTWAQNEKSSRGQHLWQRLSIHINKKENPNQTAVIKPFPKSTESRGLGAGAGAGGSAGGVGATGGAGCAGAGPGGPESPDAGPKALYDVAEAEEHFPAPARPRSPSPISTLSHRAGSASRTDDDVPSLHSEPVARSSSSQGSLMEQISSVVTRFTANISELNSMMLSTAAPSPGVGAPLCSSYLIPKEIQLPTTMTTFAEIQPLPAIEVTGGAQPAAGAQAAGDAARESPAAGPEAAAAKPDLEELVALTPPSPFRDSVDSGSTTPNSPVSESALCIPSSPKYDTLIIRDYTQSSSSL
As to the kind of experiment: Fluorescence-based Ca2+ mobilization assay. It is filed as cell-based. Conditions: HEK293 cells overexpressing mGluR5; L-glutamate at EC80. Here is the method:
In order to measure the activity on the mGluR5, an experiment was carried out to check the change in the intracellular Ca^2+ level using the HEK293 cell line permanently overexpressing the mGluR5. The cells in the cell culture medium were aliquoted into a 384-well plate coated with poly-D-lysine and cultured in a 37° C. incubator supplied with 5% CO2. The next day, the medium was removed and a dye loading buffer—in which a reagent capable of measuring Ca^2+ was dissolved—was added, and then incubated at 37° C. for 60 minutes. The test compounds were dissolved in 100% DMSO at a final concentration of 10 mM to make a stock solution. The starting concentration of […] was prepared from the stock solution, followed by serial dilutions to prepare working solutions (test compound working solutions). The test compound working solutions were added to the cells that were incubated in the dye loading buffer, which were maintained for 30 minutes at room temperature in a light-shielding state before measurement. The Ca^2+ level change induced by L-glutamate at EC80 concentration was measured for 2 minutes using FLIPR Tetra (MDS Analytical Technologies). The fluorescent Ca^2+ signal values in the presence of the test compounds were normalized to the fluorescent signal elicited by […] concentration of L-glutamate as 100% and that elicited by vehicle as 0% to estimate % inhibition of the test compounds. The efficacy of the test compounds was calculated as IC50 values and represented in Table 1. (+: 1,000-2,000 nM, ++: 500-1,000 nM, +++: 100-500 nM, ++++: less than 100 nM).
Background: A change in cytosolic calcium serves as a functional read-out for many receptors and channels.

Some results are limits rather than exact numbers.

T1 sequence (P28223 whole entry): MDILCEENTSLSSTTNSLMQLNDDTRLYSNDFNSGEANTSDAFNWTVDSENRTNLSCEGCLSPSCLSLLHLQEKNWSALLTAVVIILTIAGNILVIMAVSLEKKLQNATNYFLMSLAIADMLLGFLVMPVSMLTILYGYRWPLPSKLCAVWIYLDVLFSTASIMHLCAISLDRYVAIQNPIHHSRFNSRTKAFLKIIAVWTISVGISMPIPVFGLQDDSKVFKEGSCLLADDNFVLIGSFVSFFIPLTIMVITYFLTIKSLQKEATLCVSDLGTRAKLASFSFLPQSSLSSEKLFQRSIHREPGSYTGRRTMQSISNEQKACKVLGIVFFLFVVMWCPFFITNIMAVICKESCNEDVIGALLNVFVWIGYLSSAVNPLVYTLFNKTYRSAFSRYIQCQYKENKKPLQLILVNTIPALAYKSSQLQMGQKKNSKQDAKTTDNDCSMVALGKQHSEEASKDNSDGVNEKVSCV

As for `O=C(NCC1CCO1)c1ccc(C#Cc2ccc(F)cc2F)cc1` (stereo not shown) [Example 118, 4-((2,4-difluorophenyl)ethynyl)-N-(oxetan-2-ylmethyl)benzamide], the IC50 (commonly the concentration that gives 50% inhibition) against human 5-HT2AR is under 100 nM; on mGluR5 it was 1000 to 2000 nM.
In the case of `O=C(NCC1(NC2CC2)CCCC1)c1ccc(C#Cc2ccc(F)c(F)c2)cc1` [Example 17, N-((1-(cyclopropylamino)cyclopentyl)methyl)-4-((3,4-difluorophenyl)ethynyl)benzamide], the IC50 against human 5-HT2AR was in the range of 100 to 500 nM; on mGluR5 it was 1000 to 2000 nM.
For `O=C(NCC1(NC2CC2)CCC1)c1ccc(C#Cc2ccc(F)cc2)cc1` [Example 6, N-((1-(cyclopropylamino)cyclobutyl)methyl)-4-((4-fluorophenyl)ethynyl)benzamide], the half-inhibitory concentration (IC50) at human 5-HT2AR was under 100 nM; against mGluR5 it was 500 to 1000 nM.
As to `O=C(NCC1(NC2CC2)CCC1)c1ccc(C#Cc2ccncc2)c(F)c1` [Example 7, N-((1-(cyclopropylamino)cyclobutyl)methyl)-3-fluoro-4-(pyridin-4-ylethynyl)benzamide], the IC50 lay within 100 to 500 nM at human 5-HT2AR and 1000 to 2000 nM at mGluR5.
Turning to `O=C(NCC1(NC2CC2)CCC1)c1ccc(C#Cc2ccccn2)cc1` [Example 8, N-((1-(cyclopropylamino)cyclobutyl)methyl)-4-(pyridin-2-ylethynyl)benzamide], the half-maximal inhibitory concentration (IC50) at human 5-HT2AR lay in the range of 1000 to 2000 nM; against mGluR5, 500 to 1000 nM.
Consider `O=C(NCC1(CO)CCOCC1)c1ccc(C#Cc2ccccc2F)cc1` [Example 38, 4-((2-fluorophenyl)ethynyl)-N-((4-(hydroxymethyl)tetrahydro-2H-pyran-4-yl)methyl)benzamide], for which the figures for the IC50 against human 5-HT2AR and against mGluR5 were 500 to 1000 nM and 100 to 500 nM, respectively.
As to `CC1(CNC(=O)c2ccc(C#Cc3ccc(F)cc3F)cc2)CCC1` [Example 107, 4-((2,4-difluorophenyl)ethynyl)-N-((1-methylcyclobutyl)methyl)benzamide], the IC50 at human 5-HT2AR and against mGluR5 was under 100 nM in each case.
`O=C(NCC1(NC2CC2)CCCCCC1)c1ccc(C#Cc2ccc(F)cc2)cc1` [Example 14, N-((1-(cyclopropylamino)cycloheptyl)methyl)-4-((4-fluorophenyl)ethynyl)benzamide]: the IC50 is under 100 nM on human 5-HT2AR and 100 to 500 nM on mGluR5.
As to `[2H]C([2H])(NC(=O)c1ccc(C#Cc2ccccc2F)cc1)C1CCOCC1` [Example 68, 4-((2-fluorophenyl)ethynyl)-N-((tetrahydro-2H-pyran-4-yl)methyl-d2)benzamide], the concentration for half-maximal inhibition (IC50) against human 5-HT2AR fell in the range of 500 to 1000 nM; on mGluR5, 100 to 500 nM.
For `COC(=O)CC1(CNC(=O)c2ccc(C#Cc3ccccc3F)cc2)CCOCC1` [Example 75, methyl 2-(4-((4-((2-fluorophenyl)ethynyl)benzamido)methyl)tetrahydro-2H-pyran-4-yl)acetate], the half-maximal inhibitory concentration (IC50) against human 5-HT2AR lay in the range of 500 to 1000 nM; against mGluR5, 100 to 500 nM.
As for `O=C(NCC1CCCCO1)c1ccc(C#Cc2ccccc2F)cc1` (stereo not shown) [Example 54, 4-((2-fluorophenyl)ethynyl)-N-((tetrahydro-2H-pyran-2-yl)methyl)benzamide], the 50% inhibitory concentration (IC50) was 100 to 500 nM against human 5-HT2AR and under 100 nM against mGluR5.
For `O=C(NC[C@@H]1CCOC1)c1ccc(C#Cc2ccccc2F)cc1` [Example 93, (S)-4-((2-fluorophenyl)ethynyl)-N-((tetrahydrofuran-3-yl)methyl)benzamide], the IC50 against human 5-HT2AR and at mGluR5 was 100 to 500 nM throughout.
As to `O=C(NC[C@H]1CCCO1)c1ccc(C#Cc2ccc(F)cc2)cc1` [Example 110, (R)-4-((4-fluorophenyl)ethynyl)-N-((tetrahydrofuran-2-yl)methyl)benzamide], the values for the IC50 against human 5-HT2AR and on mGluR5 were 100 to 500 nM and under 100 nM, respectively.
On to `NC(=O)CC1(CNC(=O)c2ccc(C#Cc3ccccc3F)cc2)CCCCC1` [Example 77, N-((1-(2-amino-2-oxoethyl)cyclohexyl)methyl)-4-((2-fluorophenyl)ethynyl)benzamide], for which the half-inhibitory concentration (IC50) against human 5-HT2AR was 1000 to 2000 nM; against mGluR5 it was under 100 nM.
On to `O=C(O)CCC1(CNC(=O)c2ccc(C#Cc3ccccc3F)cc2)CCCCC1` [Example 61, 3-(1-((4-((2-fluorophenyl)ethynyl)benzamido)methyl)cyclohexyl)propanoic acid], for which the IC50 was 500 to 1000 nM at human 5-HT2AR and 1000 to 2000 nM against mGluR5.
Take `[2H]C(NC(=O)c1ccc(C#Cc2ccccc2F)cc1)C1(C)COC1` (stereo not shown) [Example 95, 4-((2-fluorophenyl)ethynyl)-N-((3-methyloxetan-3-yl)methyl-d)benzamide]: the IC50 against human 5-HT2AR was 500 to 1000 nM; on mGluR5, under 100 nM.
As to `CC1(C)CC(CNC(=O)c2ccc(C#Cc3ccccc3F)cc2)CO1` (stereo not shown) [Example 70, N-((5,5-dimethyltetrahydrofuran-3-yl)methyl)-4-((2-fluorophenyl)ethynyl)benzamide], the IC50 lay in the range of 500 to 1000 nM against human 5-HT2AR and 100 to 500 nM on mGluR5.
Regarding `CC(C)NC1(CNC(=O)c2ccc(C#Cc3ccccc3F)cc2)CCOCC1` [Example 24, 4-((2-fluorophenyl)ethynyl)-N-((4-(isopropylamino)tetrahydro-2H-pyran-4-yl)methyl)benzamide], the IC50 against human 5-HT2AR and on mGluR5 was 100 to 500 nM throughout.
For `CNC(=O)CC1(CNC(=O)c2ccc(C#Cc3ccccc3F)cc2)CCCCC1` [Example 80, 4-((2-fluorophenyl)ethynyl)-N-((1-(2-(methylamino)-2-oxoethyl)cyclohexyl)methyl)benzamide], the IC50 against human 5-HT2AR and on mGluR5 was 100 to 500 nM each time.
For `O=C(O)CC1(CNC(=O)c2ccc(C#Cc3ccccc3F)cc2)CCCCC1` [Example 76, 2-(1-((4-((2-fluorophenyl)ethynyl)benzamido)methyl)cyclohexyl)acetic acid], the IC50 lay within 100 to 500 nM against human 5-HT2AR and 500 to 1000 nM at mGluR5.
Consider `CC1(CNC(=O)c2ccc(C#Cc3ccccc3F)cc2)CC(F)(F)C1` [Example 97, N-((3,3-difluoro-1-methylcyclobutyl)methyl)-4-((2-fluorophenyl)ethynyl)benzamide], for which the results for the half-inhibitory concentration (IC50) against human 5-HT2AR and against mGluR5 were 1000 to 2000 nM and under 100 nM, respectively.
As to `O=C(NCC1(CCCO)CCCCC1)c1ccc(C#Cc2ccccc2F)cc1` [Example 62, 4-((2-fluorophenyl)ethynyl)-N-((1-(3-hydroxypropyl)cyclohexyl)methyl)benzamide], the IC50 on human 5-HT2AR was 1000 to 2000 nM; at mGluR5, 100 to 500 nM.
Consider `O=C(NC[C@H]1C[C@@H](O)C1)c1ccc(C#Cc2ccccc2F)cc1` [Example 85, 4-((2-fluorophenyl)ethynyl)-N-(((1s,3s)-3-hydroxycyclobutyl)methyl)benzamide], for which the IC50 fell in the range of 500 to 1000 nM at human 5-HT2AR and 100 to 500 nM against mGluR5.
For `O=C(NCC1CC(F)(F)C1)c1ccc(C#Cc2ccccc2)cc1` [Example 90, N-((3,3-difluorocyclobutyl)methyl)-4-(phenylethynyl)benzamide], the values for the IC50 at human 5-HT2AR and on mGluR5 were 100 to 500 nM and under 100 nM, respectively.
Consider `CCC1(CNC(=O)c2ccc(C#Cc3ccc(F)cc3F)cc2)COC1` [Example 122, 4-((2,4-difluorophenyl)ethynyl)-N-((3-ethyloxetan-3-yl)methyl)benzamide], for which the half-maximal inhibitory concentration (IC50) against human 5-HT2AR was under 100 nM; at mGluR5, 100 to 500 nM.
Take `O=C(NCC1(c2cccnc2)CCCC1)c1ccc(C#Cc2ccccc2F)cc1` [Example 34, 4-((2-fluorophenyl)ethynyl)-N-((1-(pyridin-3-yl)cyclopentyl)methyl)benzamide]: the IC50 against human 5-HT2AR fell in the range of 1000 to 2000 nM; at mGluR5, 500 to 1000 nM.
